13 molecules from ChEMBL document CHEMBL1201862, “PubChem BioAssay data set” (2004) can be followed below.

Active and inactive are the calls of the source.

The target of one test is T1, Coagulation factor XII (Homo sapiens, UniProt P00748).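 Also: activated factor XIIa alpha cleaving a fluorogenic AMC peptide substrate; inhibitor potency from loss of enzyme activity.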
T1 sequence (P00748 whole entry): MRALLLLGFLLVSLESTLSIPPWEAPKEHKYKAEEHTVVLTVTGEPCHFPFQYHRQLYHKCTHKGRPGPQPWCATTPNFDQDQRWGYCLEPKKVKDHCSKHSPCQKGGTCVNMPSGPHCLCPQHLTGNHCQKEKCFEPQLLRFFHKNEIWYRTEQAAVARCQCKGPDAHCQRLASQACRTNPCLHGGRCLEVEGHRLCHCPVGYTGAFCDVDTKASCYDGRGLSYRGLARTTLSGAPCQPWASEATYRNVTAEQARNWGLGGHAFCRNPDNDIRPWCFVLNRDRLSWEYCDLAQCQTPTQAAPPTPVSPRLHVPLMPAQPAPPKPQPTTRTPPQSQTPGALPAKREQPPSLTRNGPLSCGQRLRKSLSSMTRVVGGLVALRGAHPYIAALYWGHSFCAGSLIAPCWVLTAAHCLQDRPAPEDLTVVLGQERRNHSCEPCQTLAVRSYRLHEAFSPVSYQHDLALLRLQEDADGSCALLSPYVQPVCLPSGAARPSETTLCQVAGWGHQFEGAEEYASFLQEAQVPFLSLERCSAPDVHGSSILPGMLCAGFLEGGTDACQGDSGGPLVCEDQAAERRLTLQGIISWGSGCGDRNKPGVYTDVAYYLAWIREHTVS
It is filed as functional.

Another test concerns the target Melanocortin receptor 4 (Homo sapiens, UniProt P32245). It is filed as functional, cell-based.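 Also: Cell-based assay with luminescence read-out, confirmatory dose-response testing for agonist activity of biased ligands at MC4R; human U2OS cells with tagged receptor and beta-arrestin; potency of agonists that increase receptor coupling to beta-arrestin.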
Test [1] addresses Neurotensin receptor type 1 (Homo sapiens, UniProt P30989). It is filed as functional.
Test [2] deals with T2, Voltage-gated N-type calcium channel alpha-1B subunit/Amyloid beta A4 precursor protein-binding family A member 1 (Homo sapiens, UniProt Q00975+Q02410). It counts as protein assay.
T2 sequence (Q00975 whole entry): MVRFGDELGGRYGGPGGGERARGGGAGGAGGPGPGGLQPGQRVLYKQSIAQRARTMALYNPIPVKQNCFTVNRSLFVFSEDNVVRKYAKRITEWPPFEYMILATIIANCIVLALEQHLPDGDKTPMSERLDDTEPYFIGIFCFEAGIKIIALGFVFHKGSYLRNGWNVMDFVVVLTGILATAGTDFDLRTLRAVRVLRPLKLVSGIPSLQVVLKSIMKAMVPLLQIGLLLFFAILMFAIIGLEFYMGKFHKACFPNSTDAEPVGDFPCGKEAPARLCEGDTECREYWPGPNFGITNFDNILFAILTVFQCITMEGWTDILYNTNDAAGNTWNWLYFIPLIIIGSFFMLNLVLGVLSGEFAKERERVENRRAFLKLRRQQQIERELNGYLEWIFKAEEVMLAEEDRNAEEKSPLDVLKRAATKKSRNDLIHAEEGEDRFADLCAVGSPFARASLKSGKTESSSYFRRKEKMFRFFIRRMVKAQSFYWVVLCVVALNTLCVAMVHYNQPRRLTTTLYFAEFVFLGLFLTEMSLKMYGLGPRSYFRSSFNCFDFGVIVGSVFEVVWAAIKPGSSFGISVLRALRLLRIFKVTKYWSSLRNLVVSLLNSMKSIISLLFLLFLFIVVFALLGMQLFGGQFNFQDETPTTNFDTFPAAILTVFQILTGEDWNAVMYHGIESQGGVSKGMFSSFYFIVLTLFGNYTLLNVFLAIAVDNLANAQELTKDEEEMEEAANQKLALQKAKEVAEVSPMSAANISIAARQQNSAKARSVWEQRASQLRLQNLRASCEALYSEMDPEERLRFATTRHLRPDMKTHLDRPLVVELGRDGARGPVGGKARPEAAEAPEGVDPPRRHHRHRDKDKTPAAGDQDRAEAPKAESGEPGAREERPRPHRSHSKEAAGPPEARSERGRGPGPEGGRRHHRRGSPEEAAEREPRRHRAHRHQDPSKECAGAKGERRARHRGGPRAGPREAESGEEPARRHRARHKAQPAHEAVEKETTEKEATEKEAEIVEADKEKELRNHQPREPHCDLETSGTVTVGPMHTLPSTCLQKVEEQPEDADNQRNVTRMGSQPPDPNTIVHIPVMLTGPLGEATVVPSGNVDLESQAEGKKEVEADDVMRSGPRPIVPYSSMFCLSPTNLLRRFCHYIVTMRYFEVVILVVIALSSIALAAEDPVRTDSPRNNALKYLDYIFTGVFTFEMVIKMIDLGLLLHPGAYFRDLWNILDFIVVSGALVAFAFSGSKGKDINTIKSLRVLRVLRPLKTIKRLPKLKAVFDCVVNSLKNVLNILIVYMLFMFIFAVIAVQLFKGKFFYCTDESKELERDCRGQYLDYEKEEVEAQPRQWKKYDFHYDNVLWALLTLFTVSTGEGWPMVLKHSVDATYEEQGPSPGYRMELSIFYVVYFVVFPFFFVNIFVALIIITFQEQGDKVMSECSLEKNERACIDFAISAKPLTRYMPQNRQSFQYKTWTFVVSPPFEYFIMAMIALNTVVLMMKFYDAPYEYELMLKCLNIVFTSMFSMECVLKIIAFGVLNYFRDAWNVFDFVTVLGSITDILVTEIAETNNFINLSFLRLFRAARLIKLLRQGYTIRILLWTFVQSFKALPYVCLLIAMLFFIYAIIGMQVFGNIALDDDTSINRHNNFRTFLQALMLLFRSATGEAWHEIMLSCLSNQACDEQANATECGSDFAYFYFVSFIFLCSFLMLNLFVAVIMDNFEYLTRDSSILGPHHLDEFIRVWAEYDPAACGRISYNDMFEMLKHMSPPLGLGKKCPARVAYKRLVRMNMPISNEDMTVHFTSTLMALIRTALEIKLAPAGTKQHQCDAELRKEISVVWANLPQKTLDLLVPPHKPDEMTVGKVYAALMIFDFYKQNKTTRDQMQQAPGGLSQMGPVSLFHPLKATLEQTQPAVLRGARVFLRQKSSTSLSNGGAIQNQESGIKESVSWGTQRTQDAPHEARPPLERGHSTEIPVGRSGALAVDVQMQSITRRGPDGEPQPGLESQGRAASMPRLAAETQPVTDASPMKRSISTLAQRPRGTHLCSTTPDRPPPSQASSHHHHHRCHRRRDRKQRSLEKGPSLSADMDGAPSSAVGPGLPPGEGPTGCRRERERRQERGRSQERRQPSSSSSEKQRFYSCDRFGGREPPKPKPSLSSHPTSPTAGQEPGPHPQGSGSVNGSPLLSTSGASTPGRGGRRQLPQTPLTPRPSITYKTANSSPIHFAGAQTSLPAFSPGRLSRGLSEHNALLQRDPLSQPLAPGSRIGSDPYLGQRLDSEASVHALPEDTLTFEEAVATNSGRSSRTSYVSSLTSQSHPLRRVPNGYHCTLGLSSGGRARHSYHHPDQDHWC
T2 sequence (Q02410 whole entry): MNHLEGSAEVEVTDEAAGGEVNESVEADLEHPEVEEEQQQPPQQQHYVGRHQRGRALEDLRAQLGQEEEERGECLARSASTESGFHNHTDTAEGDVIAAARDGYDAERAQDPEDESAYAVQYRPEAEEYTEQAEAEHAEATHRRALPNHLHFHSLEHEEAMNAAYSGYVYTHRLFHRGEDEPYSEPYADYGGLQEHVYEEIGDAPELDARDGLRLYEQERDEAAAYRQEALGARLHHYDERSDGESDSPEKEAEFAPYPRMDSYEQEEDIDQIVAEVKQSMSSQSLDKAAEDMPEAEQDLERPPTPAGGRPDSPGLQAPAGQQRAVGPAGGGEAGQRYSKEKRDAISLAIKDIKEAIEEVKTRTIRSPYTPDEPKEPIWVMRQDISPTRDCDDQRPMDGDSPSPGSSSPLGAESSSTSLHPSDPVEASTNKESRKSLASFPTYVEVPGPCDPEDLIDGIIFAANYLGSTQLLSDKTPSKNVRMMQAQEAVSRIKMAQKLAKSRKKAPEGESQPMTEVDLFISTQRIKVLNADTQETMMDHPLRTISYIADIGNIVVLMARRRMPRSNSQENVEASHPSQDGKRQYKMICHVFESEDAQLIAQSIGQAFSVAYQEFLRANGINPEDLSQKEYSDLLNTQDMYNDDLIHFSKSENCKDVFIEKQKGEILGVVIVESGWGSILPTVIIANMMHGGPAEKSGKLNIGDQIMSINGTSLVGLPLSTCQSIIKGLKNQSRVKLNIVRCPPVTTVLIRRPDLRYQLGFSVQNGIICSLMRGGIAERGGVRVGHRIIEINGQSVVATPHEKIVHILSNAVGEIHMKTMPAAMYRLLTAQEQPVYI
The target in the next test is SUMO-activating enzyme (Homo sapiens, UniProt Q9UBT2). Put plainly: SUMOylation inhibitor hit validation, confirmation, SUMOylation inhibitor project, biochemical, AlphaScreen (AID 2018). It counts as functional.
Test [3] has as its target T2, Voltage-gated N-type calcium channel alpha-1B subunit/Amyloid beta A4 precursor protein-binding family A member 1. It counts as protein assay. The source holds these as a separate data set.
The nature of test [4]: Luminescence Cell-Based Dose Retest to Confirm Inhibitors of Cancer Stem Cells. [Related pubchem assays (depositor defined):AID2717, AID2721]. It counts as functional. The settings on record: Homo sapiens.
The nature of test [5]: growth suppression of PTEN-null colon cells, dose response, cell-based, HCT116 PTEN knockout (AID 1047).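 Also: HCT116 colon tumor cells with PTEN knocked out; cells exposed to compound for 60 hours before readout; potency for loss of cell viability measured by luminescence.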 It counts as functional.
Test [6] in a line: microbe, parasite or virus in culture. It counts as functional. The settings on record: Mycobacterium tuberculosis.
Test [7] can be described thus: growth suppression of beta-catenin-knockout colon cells, dose response, cell-based, HCT116, human colon tumor (AID 1045).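 Also: HCT116 colon tumor cells with beta catenin knocked out; cells exposed to compound for 60 hours.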 It is filed as functional.
The next test relates to INS1. As to the kind of experiment: beta cell apoptosis inhibitors, cytokine rescue, dose response, luminescence, retest (AID 449756).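 Also: cell death triggered by IL-1 beta plus TNF-alpha plus IFN-gamma mixture; protective hits raise ATP signal compared with cytokine alone wells.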 The settings on record: Rattus norvegicus. It is filed as functional, cell-based.
A further test deals with H9c2. As to the kind of experiment: cells. It is filed as functional, cell-based. The settings on record: Rattus norvegicus, H9c2, Myocardium.
A further test addresses Large T antigen (Simian virus 40, UniProt P03070). It counts as functional, Betapolyomavirus macacae.
In test [8] the target is T3, Microphthalmia-associated transcription factor (Homo sapiens, UniProt O75030).
T3 sequence (O75030 whole entry): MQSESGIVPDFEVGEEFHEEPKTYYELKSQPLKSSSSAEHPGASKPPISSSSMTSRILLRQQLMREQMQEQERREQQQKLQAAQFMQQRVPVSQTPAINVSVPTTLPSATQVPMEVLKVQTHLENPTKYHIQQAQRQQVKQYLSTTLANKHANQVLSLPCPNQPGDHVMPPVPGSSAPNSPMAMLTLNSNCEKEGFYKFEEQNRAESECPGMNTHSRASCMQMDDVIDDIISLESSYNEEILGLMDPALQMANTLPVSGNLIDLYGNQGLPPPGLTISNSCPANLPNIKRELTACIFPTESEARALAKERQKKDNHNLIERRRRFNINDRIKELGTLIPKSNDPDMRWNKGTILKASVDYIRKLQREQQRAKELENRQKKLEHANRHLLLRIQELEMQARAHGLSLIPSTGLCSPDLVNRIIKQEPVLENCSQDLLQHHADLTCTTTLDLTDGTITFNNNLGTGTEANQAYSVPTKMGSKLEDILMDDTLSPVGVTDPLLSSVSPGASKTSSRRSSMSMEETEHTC
Put plainly: TRPM1 promoter luciferase signal decrease, dose response, MITF inhibitor project, cell-based, SK-MEL-5, cherry-picked, set 3 (AID 493073).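 Also: SK-MEL-5 melanoma cells with luciferase driven by the MITF target TRPM1 promoter.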 It is filed as functional.

In test [9] the target is T4, Carboxy-terminal domain RNA polymerase II polypeptide A small phosphatase 1 (Homo sapiens, UniProt Q9GZU7).
T4 sequence (Q9GZU7 whole entry): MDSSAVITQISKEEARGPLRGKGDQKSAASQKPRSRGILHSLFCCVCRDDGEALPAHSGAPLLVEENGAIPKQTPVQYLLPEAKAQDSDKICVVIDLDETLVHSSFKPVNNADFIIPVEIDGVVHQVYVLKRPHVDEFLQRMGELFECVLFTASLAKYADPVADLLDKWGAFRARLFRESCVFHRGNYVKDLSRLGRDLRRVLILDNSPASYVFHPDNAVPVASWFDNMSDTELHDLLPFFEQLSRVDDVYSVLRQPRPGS
Put plainly: inhibitors of CTDSP1, concentration-response testing, biochemical assay, absorbance-based, actives from ultra-high-throughput screening (AID 540297). It counts as functional.

Test [10] addresses Induced myeloid leukemia cell differentiation protein Mcl-1 (Homo sapiens, UniProt Q07820). It counts as functional.
A further test deals with Jurkat. Put plainly: antigen receptor-induced NF-kB inhibitors, dose response, Jurkat, luciferase reporter, luminescence, B- and T-cell (AID 489004).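 Also: NF-kB luciferase reporter Jurkat cells stimulated with PMA plus ionomycin.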 It counts as functional, cell-based. The settings on record: Homo sapiens.
The nature of test [11]: Luminescence Cell-Based Dose Response HTS to Identify Inhibitors of 5'UTR Stem-Loop Driven Prion Protein mRNA Translation in H4 Neuroglioblastoma Cells. [Related pubchem assays: 1827 (Project Summary), 1813 (Primary HTS)]. It is filed as functional.
The target of test [12] is T5, Rac GTPase-activating protein 1 (Homo sapiens, UniProt Q9H0H5).
T5 sequence (Q9H0H5 whole entry): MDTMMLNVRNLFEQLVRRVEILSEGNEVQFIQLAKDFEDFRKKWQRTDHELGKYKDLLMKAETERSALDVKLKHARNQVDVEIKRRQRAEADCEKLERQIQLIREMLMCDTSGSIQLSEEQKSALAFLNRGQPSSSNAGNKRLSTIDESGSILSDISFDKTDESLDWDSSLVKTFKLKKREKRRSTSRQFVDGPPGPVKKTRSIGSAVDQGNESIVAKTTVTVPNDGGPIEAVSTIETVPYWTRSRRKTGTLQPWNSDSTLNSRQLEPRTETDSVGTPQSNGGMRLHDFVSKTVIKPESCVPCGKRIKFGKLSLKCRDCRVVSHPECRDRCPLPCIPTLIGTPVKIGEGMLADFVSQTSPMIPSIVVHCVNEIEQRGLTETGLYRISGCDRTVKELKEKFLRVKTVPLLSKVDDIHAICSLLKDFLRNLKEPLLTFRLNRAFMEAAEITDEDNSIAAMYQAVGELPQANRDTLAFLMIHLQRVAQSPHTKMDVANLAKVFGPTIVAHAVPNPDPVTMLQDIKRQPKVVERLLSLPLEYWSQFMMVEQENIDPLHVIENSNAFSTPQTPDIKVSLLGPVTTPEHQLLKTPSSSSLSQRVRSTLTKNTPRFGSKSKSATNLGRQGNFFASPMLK
Put plainly: MgcRacGAP GTPase-activating activity inhibitors, confirmation, biochemical, ADP Hunter fluorescence, primary and confirmatory (AID 624330). It counts as functional.

The nature of test [13]: inhibitors of firefly luciferase expression or activity, dose response, H4 neuroglioma cells, luminescence (AID 1990). It counts as functional, cell-based.
Test [14] can be described thus: HeLa cell cytotoxicity, dose response, cytotoxicity control for MgcRacGAP inhibitor project (AID 624300). It counts as functional.
Test [15] is described as follows: inhibitors of SNCA 5'UTR-driven reporter translation, confirmation, H4 neuroglioma cells, luminescence (AID 1988). It counts as functional, cell-based.
A short description of test [16]: cytotoxicity in HEK-293T NF-kB-Luc cells, dose response, cytotoxicity control for B/T-cell NF-kB inhibitor project, cell-based, uHTS hits (AID 489019).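 Also: IC50 reflects cytotoxicity as loss of cell viability.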 It counts as functional.
A further test deals with T6, ORF 73 (Human herpesvirus 8, UniProt O40947).
T6 sequence (O40947 whole entry): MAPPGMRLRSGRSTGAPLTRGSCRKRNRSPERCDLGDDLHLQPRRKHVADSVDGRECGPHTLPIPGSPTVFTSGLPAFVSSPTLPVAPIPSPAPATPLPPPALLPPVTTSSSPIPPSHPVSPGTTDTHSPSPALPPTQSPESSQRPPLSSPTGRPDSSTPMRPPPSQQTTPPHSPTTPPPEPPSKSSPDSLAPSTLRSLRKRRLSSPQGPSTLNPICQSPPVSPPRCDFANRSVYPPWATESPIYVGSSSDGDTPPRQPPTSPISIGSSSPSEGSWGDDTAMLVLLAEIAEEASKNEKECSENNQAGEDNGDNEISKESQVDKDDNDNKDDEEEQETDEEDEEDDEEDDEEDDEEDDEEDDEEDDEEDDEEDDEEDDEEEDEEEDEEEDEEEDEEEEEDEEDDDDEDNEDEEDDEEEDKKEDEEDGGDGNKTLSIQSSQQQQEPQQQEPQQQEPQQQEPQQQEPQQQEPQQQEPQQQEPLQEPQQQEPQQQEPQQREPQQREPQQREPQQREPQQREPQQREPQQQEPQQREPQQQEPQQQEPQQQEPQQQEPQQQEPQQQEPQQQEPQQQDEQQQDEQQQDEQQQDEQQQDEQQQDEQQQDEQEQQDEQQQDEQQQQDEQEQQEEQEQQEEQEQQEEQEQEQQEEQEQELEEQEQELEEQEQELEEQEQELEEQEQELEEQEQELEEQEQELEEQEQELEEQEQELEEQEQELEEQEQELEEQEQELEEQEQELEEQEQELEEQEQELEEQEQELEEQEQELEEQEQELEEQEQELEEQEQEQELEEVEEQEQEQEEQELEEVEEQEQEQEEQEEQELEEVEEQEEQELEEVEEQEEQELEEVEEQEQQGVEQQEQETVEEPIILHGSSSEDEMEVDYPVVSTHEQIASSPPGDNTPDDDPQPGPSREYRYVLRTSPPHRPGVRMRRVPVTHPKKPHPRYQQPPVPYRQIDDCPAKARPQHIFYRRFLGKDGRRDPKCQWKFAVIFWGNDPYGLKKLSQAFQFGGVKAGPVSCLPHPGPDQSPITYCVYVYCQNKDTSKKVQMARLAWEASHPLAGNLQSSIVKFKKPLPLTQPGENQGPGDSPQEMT
As to the kind of experiment: inhibitors of C-LANA binding to LBS DNA, dose response, biochemical, fluorescence polarization, cherry-picked samples (AID 504725).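 Also: fluorescence polarization of a labeled DNA duplex reporting LANA DNA binding; potency is for inhibitors that block LANA binding to the DNA.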 Also on record: species or system Human gammaherpesvirus 8.

Chain of Neurotensin receptor type 1 (P30989 whole entry): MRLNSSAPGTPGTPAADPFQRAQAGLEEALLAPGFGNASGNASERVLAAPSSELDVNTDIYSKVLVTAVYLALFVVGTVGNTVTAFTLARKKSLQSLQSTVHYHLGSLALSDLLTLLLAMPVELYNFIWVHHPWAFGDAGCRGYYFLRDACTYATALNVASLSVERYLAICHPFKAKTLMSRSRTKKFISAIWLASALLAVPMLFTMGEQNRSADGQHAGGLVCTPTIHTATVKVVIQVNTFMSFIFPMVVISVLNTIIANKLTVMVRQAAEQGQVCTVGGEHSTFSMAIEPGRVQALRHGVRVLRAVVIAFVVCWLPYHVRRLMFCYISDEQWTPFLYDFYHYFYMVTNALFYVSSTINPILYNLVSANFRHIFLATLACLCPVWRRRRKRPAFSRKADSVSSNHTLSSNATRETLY
Chain of Induced myeloid leukemia cell differentiation protein Mcl-1 (Q07820 whole entry): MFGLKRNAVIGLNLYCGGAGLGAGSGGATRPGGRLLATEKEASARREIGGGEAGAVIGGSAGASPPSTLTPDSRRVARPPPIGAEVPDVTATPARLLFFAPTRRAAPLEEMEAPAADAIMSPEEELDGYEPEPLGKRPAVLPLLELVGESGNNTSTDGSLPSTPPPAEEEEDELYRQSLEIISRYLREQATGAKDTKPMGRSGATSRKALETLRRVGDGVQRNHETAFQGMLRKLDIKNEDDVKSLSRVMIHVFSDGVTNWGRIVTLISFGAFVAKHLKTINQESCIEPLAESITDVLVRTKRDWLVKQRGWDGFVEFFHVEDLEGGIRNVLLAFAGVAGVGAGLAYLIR
Chain of Large T antigen (P03070 whole entry): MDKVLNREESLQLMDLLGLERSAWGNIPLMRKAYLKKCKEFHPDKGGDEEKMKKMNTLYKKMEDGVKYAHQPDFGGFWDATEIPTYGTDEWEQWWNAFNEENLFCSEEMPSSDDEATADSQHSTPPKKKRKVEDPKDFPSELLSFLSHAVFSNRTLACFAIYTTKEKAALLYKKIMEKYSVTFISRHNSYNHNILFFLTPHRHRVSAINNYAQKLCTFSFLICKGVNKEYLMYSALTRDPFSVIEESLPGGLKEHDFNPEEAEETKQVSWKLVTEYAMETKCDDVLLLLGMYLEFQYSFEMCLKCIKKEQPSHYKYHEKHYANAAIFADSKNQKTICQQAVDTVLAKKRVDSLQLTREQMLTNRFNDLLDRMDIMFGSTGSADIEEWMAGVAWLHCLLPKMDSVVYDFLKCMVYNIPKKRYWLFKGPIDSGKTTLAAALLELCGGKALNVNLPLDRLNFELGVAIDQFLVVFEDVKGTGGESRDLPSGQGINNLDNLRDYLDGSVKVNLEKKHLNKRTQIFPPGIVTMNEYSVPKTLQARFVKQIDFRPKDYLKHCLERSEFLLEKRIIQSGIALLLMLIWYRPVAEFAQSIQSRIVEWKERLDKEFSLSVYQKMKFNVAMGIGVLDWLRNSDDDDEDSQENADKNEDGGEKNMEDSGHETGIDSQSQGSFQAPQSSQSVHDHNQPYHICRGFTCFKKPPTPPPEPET
Chain of Melanocortin receptor 4 (P32245 whole entry): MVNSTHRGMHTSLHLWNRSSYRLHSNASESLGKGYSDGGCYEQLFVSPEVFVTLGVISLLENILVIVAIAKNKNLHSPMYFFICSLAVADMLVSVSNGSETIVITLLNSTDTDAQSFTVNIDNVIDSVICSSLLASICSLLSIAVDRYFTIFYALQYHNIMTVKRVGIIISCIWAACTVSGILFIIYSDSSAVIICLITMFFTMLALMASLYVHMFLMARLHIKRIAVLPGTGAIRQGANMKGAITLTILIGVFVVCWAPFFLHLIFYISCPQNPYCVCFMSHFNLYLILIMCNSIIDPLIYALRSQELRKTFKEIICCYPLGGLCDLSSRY

As to `O=C(CSc1nnc(COc2ccccc2)n1Cc1ccco1)c1ccc(F)cc1`, at Coagulation factor XII, the IC50 was > 50 µM (inactive).
Consider `Clc1ccc(C2=Nn3c(nnc3-c3cc(-c4ccccc4)n[nH]3)SC2)cc1`, for which the EC50 is > 89.2 µM (inactive) on Melanocortin receptor 4 and 37.9 µM (inactive) in test [1].
Take `Nc1ccc2nc(-c3ccc(-c4nc5ccc(N)cc5[nH]4)cc3)[nH]c2c1`: the IC50 in [2] is > 50 µM (inactive); at SUMO-activating enzyme it was > 100 µM (inactive); in test [3] it was 5.62 µM (active).
In the case of `CCc1ccc2c(c1)C1(C(=O)N2)N2CCCC2C(C(=O)c2ccc3ccccc3c2)C12C(=O)Nc1ccccc12` (stereo not given), the results for the AC50 (in test [4]; with INS1) were 3.05 µM (active) and 6.87 µM (active), respectively. Further, the EC50 in test [5] was 10.2 µM (active); in test [1], 9.78 µM (active); in [7], 10.1 µM (active). In test [6], the CC50 was 16.2 µM (active).
In the case of `COc1cccc(OC)c1-c1nn2c(-c3ccco3)nnc2s1`, the IC50 was > 50 µM (inactive) at Coagulation factor XII and > 79 µM (inactive) with H9c2.
`CC(C)C(OC(=O)c1cccs1)C(=O)NCc1ccc2c(c1)OCO2` (stereo not given): the IC50 at Coagulation factor XII was > 50 µM (inactive).
Consider `O=C1NC(=O)C(=Cc2ccc(-c3cc(Cl)ccc3[N+](=O)[O-])o2)C(=O)N1`, for which the values for the IC50 (at Large T antigen; in test [2]; in [3]) were 48.3 µM (active), > 50 µM (inactive) and 4.58 µM (active), respectively. Moreover, in test [8], the AC50 was 17.2 µM (active).
`O=C(O)CCn1cc(C=C2C(=O)NC(=S)NC2=O)c(-c2cc3ccccc3oc2=O)n1`: the IC50 in test [2] is 6.27 µM (active); in test [9], 13 µM (active); in [10], 3.42 µM (active); in test [3] it was 17.8 µM (active).
`CC(C)c1ccc(NC(=O)c2ccc(Br)o2)cc1`: on Coagulation factor XII, the IC50 was > 50 µM (inactive).
Consider `COc1ccc(CNc2ncc(-c3ccc(F)cc3)n2C)c2ccccc12`, for which the figures for the IC50 (in the test with Jurkat; in [12]; in [16]) were 1.97 µM (active), 62.6 µM (active) and > 80 µM (inactive), respectively. Further, the concentration for a half-maximal effect (EC50) is 6.58 µM (active) in test [11], 10 µM (active) in test [13] and 1.22 µM (active) in [15]. For the same molecule, the CC50 in test [14] was 100 µM (active).
On to `Cc1cc2c(c(=O)n1C)C(Cc1ccccc1)C(C#N)=C(N)O2` (stereo not given), for which, on Coagulation factor XII, the IC50 is > 50 µM (inactive).
As to `CCOC(=O)C1Nc2ccccc2C2C(O)C(O)CC12` (stereo not given), on ORF 73, the AC50 was > 350 µM (inactive).
In the case of `O=C(N/N=C/c1coc2ccccc2c1=O)c1cc(O)cc(O)c1`, the IC50 in test [2] is > 50 µM (inactive); in test [3] it was 7.54 µM (active).
